Test results published in patent US20110124574A1, “RESTORATION OF ESTROGEN RECEPTOR-(ALPHA) ACTIVITY” (priority 2008, published 2011).
Where no end group is shown, it is not given here. The star is where a group is joined. For = O=C*

Experiments:
Assay type in all cases: cell-based, human
[1] = system: cleaved caspase 3; test: Cleaved caspase 3 Western blot after tamoxifen; details: MDA-MB-231, stimulation plus tamoxifen, compared with cells treated only with tamoxifen
Method: (§1) MDA-MB-231 cells were grown in 6 well plates and stimulated with recombinant Wnt-5a protein (rW5a) or the Wnt-5a derived Foxy-5 peptide (F5), for 24 or 48 h. Cells were treated with tamoxifen for the final 20 h and their apoptotic responses were measured via different methods. […] Arrows highlight apoptotic cells. Bars represent […]. B: Following treatment with rW5a, F5 and tamoxifen, or tamoxifen alone, cells were lysed and subjected to SDS-PAGE, transferred to nitrocellulose membranes and blotted for cleaved caspase 3. C: Treated cells were assessed for their relative caspase 3 activity using fluorometric spectrophotometry. The graph represents 6 separate experiments. * P<0.01, ** P<0.001. D: MTT assays were also performed on MDA-MB-231 cells treated with rWnt-5a, F5 and tamoxifen, or tamoxifen alone (MDA-MB-231 and MCF-7 cells) to assess cell growth inhibition. The graph represents the average of 6 separate experiments, with standard deviation represented by error bars. ** P<0.01, *** P<0.001.
Cells were lysed in Triton lysis buffer (50 mM Tris (pH7.5), 1% Triton x-100, 140 mM NaCl, 0.5 mM EDTA, 0.5 MgCl2, 10 mM NaF) with the addition of fresh leupeptin (1 μg/ml), Pefabloc (2 mM), aprotinin (20 μg/ml) and Na3VO4 (4 mM). […] Scanning and densitometry was performed using a Bio-Rad (Hercules Calif.) GS-800 densitometer with Quantity One software. […]

[2] = system: ERα; test: RT-PCR of estrogen responsive genes CATD and EBAG9 after estradiol and tamoxifen; details: MDA-MB-231, hormone free media, pretreatment, estradiol plus tamoxifen, at 48 hours
Method: MDA-MB-231 cells were grown in 6 well plates and stimulated with recombinant Wnt-5a (rW5a) or the Wnt-5a derived Foxy-5 peptide (F5), for 24 h or 48 h. The ERα ligand estradiol was added for the final 22 h, and tamoxifen for the final 20 h to a subset of samples. RNA was extracted at the end time point, cDNA synthesized and subjected to RT-PCR for Cathepsin D (CATD), ER-binding fragment associated antigen 9 (EBAG9) and the housekeeping gene, β-actin.
cDNA was synthesized from 1 μg of total RNA using M-MuLV reverse transcriptase (Fermentas) in a MJ Mini Personal Thermal Cycler (Bio-Rad (Hercules Calif.)). All RT-PCR was performed in a designated clean PCR hood. RT-PCR was performed using a master mix containing with 5 μl of 10× buffer, 5 μl of 25 mM MgCl2, 1 μl 10 mM dNTP, 1 μl forward primer, 1 μl reverse primer and 0.2 μl of Taq polymerase (Fermentas (Ontario, Canada)) per sample. For detection of the progesterone receptor (PR), semi nested RT-PCR was performed to increase sensitivity, whereby 10 μl of the initial PCR reaction product was added to a second PCR reaction with a second internal reverse primer. Both A and β isoforms are amplified with these primers.

[3] = system: Caspase 3; test: Caspase 3 activity assay (fluorometric, DEVD-amc); details: MDA-MB-231, stimulation plus tamoxifen 1 μM 20 hours; compared to untreated cells or tamoxifen alone
Method: as §1
Caspase 3 activity was determined via fluorescent spectrometry. The fluorogenic peptide DEVD-amc (Upstate Biotech) was used as a substrate. […] Reactions were incubated at 37° C. for 1 h and analysed on a FLUOstar plate reader (BMG Lab technologies). The total protein content of each lysates was measured using the Coomassie Plus Protein Assay and read outs averaged and adjusted accordingly. […]

Molecule	levels of cleaved caspase-3 [1]	Estradiol induced expression of CATD [2]	Estradiol induced expression of EBAG9 [2]	increase of degree of apoptosis (caspase-3 activity) [3]
formyl-MDGCEL (For-MDGCEL; listed as Homo sapiens) [Foxy-5]	higher levels	consistently lost	consistently lost	three
recombinant Wnt-5a: recombinant Wnt-5a protein (R&D Systems) (protein, UniProt P41221 62-380, looked up) Protein Wnt-5a: IIGAQPLCSQLAGLSQGQKKLCHLYQDHMQYIGEGAKTGIKECQYQFRHRRWNCSTVDNTSVFGRVMQIGSRETAFTYAVSAAGVVNAMSRACREGELSTCGCSRAARPKDLPRDWLWGGCGDNIDYGYRFAKEFVDARERERIHAKGSYESARILMNLHNNEAGRRTVYNLADVACKCHGVSGSCSLKTCWLQLADFRKVGDALKEKYDSAAAMRLNSRGKLVQVNSRFNSPTTQDLVYIDPSPDYCVRNESTGSLGTQGRLCNKTSEGMDGCELMCCGRGYDQFKTVQTERCHCKFHWCCYVKCKKCTEIVDQFVCK	higher levels	consistently lost	consistently lost	two
